Source: the supplement of paper PMC10307832

Each cell line was assayed with Cc1nc(C(=O)NCC(=O)O)c(O)c2ccc(Oc3ccccc3)cc12 [FG-4592] + CS(=O)(=O)CCNCc1ccc(-c2ccc3ncnc(Nc4ccc(OCc5cccc(F)c5)c(Cl)c4)c3c2)o1 [Lapatinib] (partner 2 µM) (assay: relative viability (nuclei count vs DMSO), 5 days (fraction); higher = more cells survive). Conditions: first compound 0.8 µM.
How it was run: (§1)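 One day after seeding in 1536-well plates, lung cancer cell lines were dosed by pin tool. Dosing was either single-drug or a fixed anchor-drug dose plus five library-drug doses (not always all listed) in √10 steps. After 5 days, nuclei were stained in one fix-and-stain step and counted on 4× images, and relative viability is the nuclei count of treated wells over that of vehicle wells, given as the median of duplicate plates.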
A549 gave a relative viability of 1.03.
LU99A gave a relative viability of 0.801.
In the case of BEN, the relative viability is reported as 0.555.
HCC-78 showed a relative viability of 0.701.
NCI-H322M gave a relative viability of 0.631.
With LCLC-97TM1 the relative viability was 0.716.
Work on NCI-H2009 yielded a relative viability of 0.888.
A-427 showed a relative viability of 0.943.
NCI-H661 gave a relative viability of 0.578.
NCI-H1734 showed a relative viability of 0.915.
For NCI-H460, the relative viability was 1.05.
In the case of NCI-H2347, the relative viability is reported as 0.848.
Work on SK-LU-1 yielded a relative viability of 0.776.
With 201T the relative viability was 0.931.

Same assay, conditions: first compound 2.53 µM
For NCI-H2085, the relative viability was 0.723.
In the case of Calu-6, the relative viability is reported as 1.08.
HCC-366 was tested, and the relative viability was 1.1.
Cell Line NCI-H1666 has a relative viability of 0.519.
With NCI-H596 the relative viability was 1.02.
For LK-2, the relative viability was 0.886.
With NCI-H2087 the relative viability was 1.1.
With SK-MES-1 the relative viability was 0.489.
Cell Line H3255 has a relative viability of 0.257.
With COR-L23 the relative viability was 0.838.
Work on COR-L 105 yielded a relative viability of 0.382.
IA-LM gave a relative viability of 0.711.
In the case of LOU-NH91, the relative viability is reported as 0.734.
NCI-H2170 showed a relative viability of 0.277.
NCI-H2405 was tested, and the relative viability was 0.918.
For HOP-62, the relative viability was 0.997.
Cell Line HCC-44 has a relative viability of 0.96.
In the case of A549, the relative viability is reported as 1.07.
Work on LU99A yielded a relative viability of 0.96.
For BEN, the relative viability was 0.822.
For HARA, the relative viability was 0.728.
With HCC-78 the relative viability was 0.892.
Work on NCI-H322M yielded a relative viability of 0.646.
For NCI-H2009, the relative viability was 0.735.
Work on A-427 yielded a relative viability of 0.953.
NCI-H661 was tested, and the relative viability was 0.473.
With NCI-H1734 the relative viability was 0.973.
NCI-H460 was tested, and the relative viability was 0.94.
In the case of NCI-H2347, the relative viability is reported as 0.917.
Cell Line SK-LU-1 has a relative viability of 0.988.
In the case of NCI-H1395, the relative viability is reported as 0.967.
For 201T, the relative viability was 1.04.

Same assay, conditions: first compound 8 µM
For NCI-H2085, the relative viability was 0.824.
Calu-6 was tested, and the relative viability was 1.07.
HCC-366 gave a relative viability of 1.13.
Cell Line NCI-H1666 has a relative viability of 0.456.
In the case of NCI-H596, the relative viability is reported as 0.847.
LK-2 showed a relative viability of 0.767.
NCI-H2087 was tested, and the relative viability was 1.15.
Cell Line SK-MES-1 has a relative viability of 0.397.
For H3255, the relative viability was 0.26.
COR-L23 showed a relative viability of 0.81.
Cell Line COR-L 105 has a relative viability of 0.329.
IA-LM was tested, and the relative viability was 0.567.
LOU-NH91 showed a relative viability of 0.631.
Cell Line NCI-H2170 has a relative viability of 0.256.
Work on NCI-H2405 yielded a relative viability of 0.702.
Cell Line HOP-62 has a relative viability of 1.01.
HCC-44 was tested, and the relative viability was 0.96.
A549 gave a relative viability of 0.946.
Cell Line LU99A has a relative viability of 0.83.
In the case of BEN, the relative viability is reported as 0.475.
For HARA, the relative viability was 0.667.
HCC-78 gave a relative viability of 0.9.
For NCI-H322M, the relative viability was 0.633.
LCLC-97TM1 gave a relative viability of 0.791.
NCI-H2009 gave a relative viability of 0.924.
A-427 showed a relative viability of 1.03.
For NCI-H661, the relative viability was 0.403.
NCI-H1734 showed a relative viability of 1.02.
Cell Line NCI-H460 has a relative viability of 1.1.
With NCI-H2347 the relative viability was 0.974.
For SK-LU-1, the relative viability was 0.88.
With NCI-H1395 the relative viability was 0.662.
Cell Line 201T has a relative viability of 1.01.

What follows are cell lines tested with CC1=CC(=C(N1C2=CC=C(C=C2)Cl)C)C(=O)CN3CCCCC3 [IU1-47] + CS(=O)(=O)N1CCN(Cc2cc3nc(-c4cccc5[nH]ncc45)nc(N4CCOCC4)c3s2)CC1 [Pictilisib] (partner 1 µM) in the same assay as above. Conditions: first compound 0.08 µM.
How it was run: as §1
Cell Line NCI-H2085 has a relative viability of 0.445.
Calu-6 gave a relative viability of 1.13.
